Key:
[1] = 40 mg bi-weekly dose; cited from earlier work
[2] = set-up: species or system female Yucatan swine; conditions: in vivo
Experimental: The above externally-triggered study was also performed using semaglutide, a glucagon-like-peptide-1 (GLP-1) receptor agonist that stimulates insulin secretion and suppress glucagon release. Devices filled with ˜0.96 mg of semaglutide were administrated by intraduodenal (ID) endoscopic placement and were externally triggered in the proximal small intestine of the female Yucatan swine. Plasma samples were then collected from 0 to 240 hours post-dose. Systemic concentrations of semaglutide were measured using LC-MS-MS to evaluate the PK of semaglutide with the OBDS device via ID administration (animals 1003-ID; 1004-ID; 1005-ID; 1009-ID; 10053-ID and 1055-ID in FIG. 87) compared with the IV control (animal 1015-IV in FIG. 87).
Seven out of eight (7/8) devices were successfully advanced through the pyloric sphincter via endoscopic placement and triggered in the proximal small intestine.

detectable drug levels up to (post-dosing) [2] | Compound | bioavailability, subcutaneous route over IV, estimated in human trials [1] [%] | clinical signs before or after dosing [2]
– | adalimumab | 64 | –
up to 10 days | CC[C@H](C)[C@H](NC(=O)[C@H](Cc1ccccc1)NC(=O)[C@H](CCC(=O)O)NC(=O)[C@H](CCCCNC(=O)COCCOCCNC(=O)COCCOCCNC(=O)CC[C@H](NC(=O)CCCCCCCCCCCCCCCCC(=O)O)C(=O)O)NC(=O)[C@H](C)NC(=O)[C@H](C)NC(=O)[C@H](CCC(N)=O)NC(=O)CNC(=O)[C@H](CCC(=O)O)NC(=O)[C@H](CC(C)C)NC(=O)[C@H](Cc1ccc(O)cc1)NC(=O)[C@H](CO)NC(=O)[C@H](CO)NC(=O)[C@@H](NC(=O)[C@H](CC(=O)O)NC(=O)[C@H](CO)NC(=O)[C@@H](NC(=O)[C@H](Cc1ccccc1)NC(=O)[C@@H](NC(=O)CNC(=O)[C@H](CCC(=O)O)NC(=O)C(C)(C)NC(=O)[C@@H](N)Cc1cnc[nH]1)[C@@H](C)O)[C@@H](C)O)C(C)C)C(=O)N[C@@H](C)C(=O)N[C@@H](Cc1c[nH]c2ccccc12)C(=O)N[C@@H](CC(C)C)C(=O)N[C@H](C(=O)N[C@@H](CCCNC(=N)N)C(=O)NCC(=O)N[C@@H](CCCNC(=N)N)C(=O)NCC(=O)O)C(C)C [semaglutide] | – | No significant clinical signs were observed

— patent publication US20250195855A1, “INGESTIBLE DEVICE FOR DELIVERY OF THERAPEUTIC AGENT TO THE GASTROINTESTINAL TRACT” (BIORA THERAPEUTICS, INC., priority 2022, published 2025)
